The subject of assay [1] is prostaglandin E2-induced contractions of guinea pig ileum. The assay is described as follows: Prostaglandin (PGE) Antagonism Assay (inhibition of prostaglandin E2-induced contractions of segments of guinea pig ileum). Conditions: for PGE2 antagonism in guinea pig ileum: Dose Ratio at 3 × 10^-6 M: test compound 3 × 10^-6 M, 30 min incubation, dose ratio of PGE2 EC50 values, average where more than one determined. The procedure: (b) Prostaglandin (PGE) Antagonism Assay
In order to determine the effectiveness of several of the compounds of the present invention ("test compounds") as prostaglandin E2 antagonists,a prostaglandin antagonism assay was conducted, as described below, to determine the ability of these compounds to inhibit prostaglandin E2 -induced contractions of segments of guinea pig ileum.
Male albino guinea pigs weighing 200 to 500 grams were sacrificed by cervical dislocation. The ilea were then quickly removed from the guinea pigs and placed in a modified Tyrode solution, a solution which is known to those skilled in the art, containing one-half of the usual amount of magnesium ions.
Segments of ileum about 2 cm long were then cut and mounted in a 10 mL tissue bath containing the modified Tyrode solution. The solution was maintained at 37° C. and aerated with a gaseous mixture of 95% oxygen and 5% carbon dioxide. Data for a control prostaglandin E2 dose response curve plotting concentration of prostaglandin E2 versus the intensity of contractions, detected isotonically, was then obtained by experimentally adjusting the dose of the prostaglandin E2 being injected into the tissue bath, in a manner known by those of skill in the art.
Solutions or suspensions containing an initial concentration (3 micromolar) of a test compound in modified Tyrode solution ("test solutions/suspensions") were then separately substituted for the control bath solution. Each test solution/suspension was then kept in constant contact with the ileum tissue, except for brief periods to drain the bath in preparation for rinsing with fresh test solution/suspension. A second prostaglandin E2 dose response curve was then generated for prostaglandin E2 in the presence of a test compound.
A control dose response curve is produced in isolated segments of guinea pig ileum mounted in an automated apparatus with six concentrations of prostaglandin E2. A solution or suspension of test compound is substituted for the control bathing solution and is incubated for thirty minutes. An additional prostaglandin E2 dose response curve is then performed in the presence of the test compound. A dose ratio is calculated from the EC50 values obtained from duplicate replications on each concentration of the test compound.
A dose ratio of EC50 doses was calculated from the results of each test in a manner known by those of skill in the art, and described above.
The dose ratios reported in Table 1 represent an average of multiple dose ratios for those compounds for which more than one dose ratio was determined. The compounds of the present invention which were tested in this assay, and for which results are presented in Table 1, correspond to the particular examples specified in Table 1.
The pA2 value (a statistical constant which is a common measure of expressing the potency of a particular drug as a competitive antagonist), rather than the dose ratio, was calculated for the test compound shown and described in Example 6 by schild plot calculations, as described by H. O. Schild, "pA, A New Scale for the Measurement of Drug Antagonism," Br. J. Pharmacol, 2, 189 (1947), and is reported in Table 1.

Assay [2] relates to phenylbenzoquinone (PBQ)-induced writhing in mice. The assay is described as follows: Writhing Assay (PBQ-induced writhing in mice, analgesic activity). In kind it is in vivo, mouse (Charles River male albino mice). The following applies: 30 mpk, i.g., 30 min before PBQ i.p., fraction of mice. An excerpt:
The Writhing Assay is one of the most widely-used experimental procedures for measuring the analgesic activity of different narcotic and nonnarcotic analgesic agents, and involves the continuous, chemically-induced pain of visceral origin to an animal, such as a mouse or rat. [Gyires et al., Arch. int. Pharmacodyn, 267, 131-140 (1984); C. Vander Wende et al., Fed. Proc., 15, 494 (1956); Koster et al., Fed. Proc., 18, 412 (1959); and Witken et al., J. Pharmacol. exp. Ther., 133, 400-408 (1961).] Chemicals which may be used to induce this pain include phenylbenzoquinone (PBQ) and acetic acid. As a result of the chemical irritation to the animal, a characteristic stretching and writhing of the animal (dorsiflexion of the animal's back, extension of its hindlimbs and the strong contraction of its abdominal musculature) will generally occur. […] Drugs which reduce the number of writhes of the animal appear to restore the normal nociceptive threshold of the animal.
Charles River male albino mice, weighing 20 to 30 grams, were used in this assay.
Thirty minutes after intragastric administration to ten mice of 30 mg per kilogram of body weight of a compound of the present invention ("test compound"), […] per 10 g of body weight of a 0.025% w/v solution of PBQ was injected intraperitoneally into each mouse. Ten mice which were given saline in place of a test compound of the invention were used as a control group.
Five minutes later, each mouse was individually placed into a glass beaker for observation, and the number of writhes occurring during the following ten-minute period was counted.
A test compound was considered to have produced analgesia in a mouse if, in accordance with the conditions set forth above, and under the test criteria employed for this assay, after the administration of 30 mg per kilogram of body weight of a compound of the present invention to the mouse, the number of writhes elicited by a mouse injected with PBQ was equal to, or less than, one-half the median number of writhes recorded for the saline-treated control group of mice that day, as described by Taber in "Predictive Value of Analgesic Assays in Mice and Rats," Advances in Biochemical Psychopharmacology, 8, 191 (1974).
The results for the particular compounds of the present invention analyzed in this assay, and discussed in the examples identified below which correspond thereto, are presented in Table 1 hereinbelow as fractions under the heading "WRITHING ASSAY." The fractions indicate the number of mice out of eight or ten in which a test compound produced analgesia.
The standard initial screening dose of a test compound employed in this assay was 30 mpk […]. Generally, if this initial screening dose of the test compound produced analgesia in seven out of ten mice, then the effect of additional doses of the test compound on the writhing response was evaluated, and then the ED50 dose was generally calculated. (The slopes of the dose-response curves for all test compounds analyzed were compared as described by Tallarida and Murray, Manual of Pharmacologic Calculations, Page 11 (Springer Verlag, New York, 1981)).
All ED50 doses calculated are also presented in Table 1 hereinbelow under the heading "WRITHING ASSAY," but as whole numbers.
(In general: In writhing tests, fewer writhes than in controls are read as antinociception.)

SMILES strings stand for the structures.

With `O=C1C2c3ccccc3Oc3ccc(Cl)cc3N2C(=O)N1c1ccccc1` (stereo not drawn) [Compound 33, 6-Chloro-2-phenyl-2,13bH-dibenz[b,f]imidazo-[1,5-d][1,4]oxazepin-1,3-dione], in assay [1], the “PGE2 antagonism in guinea pig ileum: Dose Ratio at 3 × 10^-6 M” value (“PGE2 antagonism … Dose Ratio at 3 × 10^-6 M” for short) is reported as 4.3.
For the compound `O=C1OC2(CCCC2)C2c3ccccc3Oc3ccc(Cl)cc3N12` (stereo not drawn) [Compound 22, 6-chloro-1,13H-spiro[dibenz[b,f]-oxazolo3,4-d][1,4]oxazepin-1,1'-cyclopentane-3-one], the “PGE2 antagonism … Dose Ratio at 3 × 10^-6 M” value in assay [1] was found to be 2.5.
The same measure, in the same setting: next, `O=C1OC(c2ccco2)c2c(Cl)ccc3c2N1Cc1ccccc1O3` (stereo not drawn) [Compound 13, 4-chloro-3-(-2-furyl)-1H,3H,12H-[3,1]-benzoxazino-[8,1-b,c][1,4]benzoxazepin-1-one]: 4.4; `Cn1c(-c2ccccc2)c2n(c1=O)-c1cc(Cl)ccc1Oc1ccccc1-2` [Compound 31]: 1.4.
Turning to `O=C1O[C@@H](c2ccncc2)[C@@H]2c3ccccc3Oc3ccc(Cl)cc3N12` (relative stereo) [Compound 6, trans-6-chloro-1,13b-dihydro-1-(4-pyridyl)-3H-dibenz-[b,f]oxazolo[3,4-d][1,4]oxazepin-3-one], the “Writhing assay: number of mice out of eight or ten in which test compound produced analgesia” value (from here on “Writhing assay: number”) in assay [2] is recorded as 5/10. For the same compound, the “PGE2 antagonism in guinea pig ileum: PA2 Value” in assay [1] (Schild plot) is 7.15.
Take `O=C(O)Cc1ccc(C2OC(=O)N3c4cc(Cl)ccc4Oc4ccccc4C23)cc1` (stereo not drawn) [Compound 16, 6-chloro-1,13b-dihydro-1-(-4-carboxymethlyphenyl)-3H-dibenz[b,f]-oxazolo-[3,4-d][1,4]oxazepin-3-one]: the “PGE2 antagonism … Dose Ratio at 3 × 10^-6 M” value in assay [1] amounted to 2.4.
For `O=C1O[C@@H](c2ccncc2)[C@H]2c3ccccc3Oc3ccc(Cl)cc3N12` [Compound 6a, (+)-trans-6-chloro-1,13b-dihydro-1-(4-pyridyl)-3H-dibenz[b,f]oxazolo[3,4-d][1,4]oxazepin-3-one], in assay [2] (30 mg/kg), the “Writhing assay: number” value is reported as 2/10. Moreover, in assay [1], the “PGE2 antagonism … Dose Ratio at 3 × 10^-6 M” value is 23.4.
The matching figures for `O=C1OC(c2ccncc2)c2c(Cl)ccc3c2N1Cc1ccccc1O3` (single isomer, unassigned; (+)) [Compound 5a, (+)-4-chloro-3-(4-pyridyl)-1H,3H,12H-[3,1]benzoxazino-[8,1-b,c][1,4]benzoxazepin-1-one]: 8/10 and 5.2.
Consider `O=C1OC(c2ccccc2)C2c3ccccc3Oc3ccc(Cl)cc3N12` (single isomer, unassigned) [Compound 3, 6-chloro-1,13b-dihydro-1-phenyl-3H-dibenz[b,f]oxazolo-[3,4-d][1,4]oxazepin-3-one], for which, in assay [2], the “Writhing assay: number” value is reported as 3/10. Besides, the “PGE2 antagonism … Dose Ratio at 3 × 10^-6 M” value in assay [1] is on record as 43.6.
Regarding `O=C1OC(c2cccnc2)C2c3ccccc3Oc3ccc(Cl)cc3N12` (mixture of isomers) [Compounds 9a and 9b (Mixture), 6-chloro-1,13b-dihydro-1-(3-pyridyl)-3H-dibenz[b,f]-oxazolo[3,4-d][1,4]oxazepin-3-one], in assay [1], the “PGE2 antagonism … Dose Ratio at 3 × 10^-6 M” value was determined as 1.5.
On the same count and under the same terms, the figure for `COC(=O)c1ccc([C@@H]2OC(=O)N3c4cc(Cl)ccc4Oc4ccccc4[C@@H]23)cc1` (relative stereo) [Compound 17, 6-chloro-1,13b-dihydro-1-(4-carboxymethylphenyl)-3H-dibenz[b,f]-oxazolo[3,4-d][1,4]-oxazepin-3-one] is 2.3; for `O=C1OC(c2ccsc2)C2c3ccccc3Oc3ccc(Cl)cc3N12` (stereo not drawn) [Compound 12, 6-chloro-1,13b-dihydro-1-(3-thienyl)-3H-dibenz[b,f]oxazolo[3,4-d][1,4]-oxazepin-3-one] it is 1.9.
With `O=C1OC(c2ccncc2)c2c(Cl)ccc3c2N1Cc1ccccc1O3` (single isomer, unassigned; (-)) [Compound 5b, (-)-4-chloro-3-(4-pyridyl)-1H,3H,12H-[3,1]-benzoxazino[8,1-b,c][1, 4]benzoxazepin-1-one], the “Writhing assay: number” value in assay [2] (30 mg/kg) was 4/10. In addition, in assay [1], the “PGE2 antagonism … Dose Ratio at 3 × 10^-6 M” value came to 80.5.
Regarding `O=C1OC(c2cccnc2)c2c(Cl)ccc3c2N1Cc1ccccc1O3` (stereo not drawn) [Compound 8, 4-chloro-3-(3-pyridyl)-1H,3H,12H-[3,1]-benzoxazino-[8,1-b,c][1,4]benzoxazepin-1-one], the “Writhing assay: number” value in assay [2] was 5/10.
On to `O=C1N2C=Cc3ccccc3C2C2c3ccccc3Oc3ccc(Cl)cc3N12` (single isomer, unassigned) [Compound 28, 12-Chloro-15H-benz[b]isoquino[2',1':3,4]imidazo-1,5-d][benzoxazepin-15-one], for which, in assay [1], the “PGE2 antagonism … Dose Ratio at 3 × 10^-6 M” value is 3.5.
For `O=C1N2CCc3ccccc3C2C2c3ccccc3Oc3ccc(Cl)cc3N12` (stereo not drawn) [Compound 29, 12-Chloro-17,18-dihydro-15H-benz[b]isoquino[2',1';3,4]-imidazo[1,5-d][1,4]benzoxazepin-15-one], the “PGE2 antagonism … Dose Ratio at 3 × 10^-6 M” value in assay [1] amounted to 3.8.
As to `O=C1C2c3ccccc3Oc3ccc(Cl)cc3N2C(=O)N1Cc1ccccc1` (stereo not drawn) [Compound 34, 6-Chloro-2-phenylmethyl-2H,13bH-dibenz[b,f]-imidazo-[1,5-d][1,4]oxazepin-1,3-dione], the “PGE2 antagonism … Dose Ratio at 3 × 10^-6 M” value in assay [1] is recorded as 3.6.
Same read-out and setting: next, `O=C1OC2(CCC2)C2c3ccccc3Oc3ccc(Cl)cc3N12` (stereo not drawn) [Compound 21, 6-Chloro-1,13b-dihydro-3H-spiro[dibenz[b,f]oxazolo-[3,4-d][1,4]oxazepin-1,1'-cyclobutan]-3-one]: 0.9.
Regarding `O=c1[nH]c(-c2ccccc2)c2n1-c1cc(Cl)ccc1Oc1ccccc1-2` [Compound 30, 6-Chloro-1-phenyl-2H-dibenz[b,f]imidazo[1,5-d]-[1,4]oxazepin-3-one], the “PGE2 antagonism … Dose Ratio at 3 × 10^-6 M” value in assay [1] is given as 2.1.

Values taken from patent US5677296A, “Carbamic acid derivatives of substituted dibenzoxazepine compounds, pharmaceutical compositions and methods of use” (G.D. Searle & Co., priority 1995, dated 1997).
